The test system of the assay is BDF1 mice, P388 leukemia ip, median survival T/C. Description: NCI In Vivo Anticancer Drug Screen. Data for tumor model P388 Leukemia (intraperitoneal) in B6D2F1 (BDF1) mice. As to conditions: endpoint: median survival time, higher = longer survival. An outline of the steps: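 T/C = treated-group survival ÷ vehicle-control survival; tumour transplanted into mice before dosing.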

Where [1] appears, read: dose: 50.0 mg/kg/injection, schedule: Q01DX009 (ip), vehicle: saline with Tween-80.
The mark [2] stands for this setting: dose: 50.0 mg/kg/injection, schedule: Q04DX003 (ip), vehicle: saline with Tween-80.
Where [3] appears, read: dose: 12.5 mg/kg/injection, schedule: Q01DX009 (ip), vehicle: water.
Where [4] appears, read: dose: 25.0 mg/kg/injection, schedule: Q01DX009 (ip), vehicle: water.
Setting [5] is: dose: 25.0 mg/kg/injection, schedule: Q04DX003 (ip), vehicle: water.
Where [6] appears, read: dose: 50.0 mg/kg/injection, schedule: Q01DX009 (ip), vehicle: water.
[7] abbreviates: dose: 50.0 mg/kg/injection, schedule: Q04DX003 (ip), vehicle: water.
Setting [8] is: dose: 100.0 mg/kg/injection, schedule: Q01DX009 (ip), vehicle: water.
Where [9] appears, read: dose: 100.0 mg/kg/injection, schedule: Q04DX003 (ip), vehicle: water.
Where [10] appears, read: dose: 200.0 mg/kg/injection, schedule: Q01DX009 (ip), vehicle: water.
Where [11] appears, read: dose: 200.0 mg/kg/injection, schedule: Q04DX003 (ip), vehicle: water.
The mark [12] stands for this setting: dose: 400.0 mg/kg/injection, schedule: Q04DX003 (ip), vehicle: water.

“And” between values parts separate entries of the source, which are not always exact repeats. Equal values may be shown once. Inconclusive results and toxic doses are left out.

As to `CCOC(=O)CC1=NN=C(N)SC1`, the T/C (dose: 100.0 mg/kg/injection, schedule: Q01DX009 (ip), vehicle: saline) was 122 % of control.

Turning to `CCCCCCCCCC(=O)NO`, the T/C runs as follows: (dose: 100.0 mg/kg/injection, schedule: Q01DX001 (ip), vehicle: saline sonified) 100 % of control; (dose: 200.0 mg/kg/injection, schedule: Q01DX001 (ip), vehicle: saline sonified) 100 % of control; (dose: 400.0 mg/kg/injection, schedule: Q01DX001 (ip), vehicle: saline sonified) 100 % of control.

For `[CH3][Ga][CH3].[CH3][Ga][CH3].[CH3][Ga][CH3].[CH3][Ga][CH3].[OH3+].[OH3+].[OH3+].[OH3+]`, the T/C (dose: 2.5 mg/kg/injection, schedule: Q01DX009 (ip), vehicle: saline with Tween-80) is 90 % of control.

Turning to `CC(=O)n1cc(F)c(=O)[nH]c1=O`, the T/C runs as follows: (dose: 0.57 mg/kg/injection, schedule: Q01DX009 (ip), vehicle: saline) 116 % of control; (dose: 0.99 mg/kg/injection, schedule: Q01DX009 (ip), vehicle: saline) 113 % of control; (dose: 1.3 mg/kg/injection, schedule: Q01DX009 (ip), vehicle: saline) 122 % of control; (dose: 2.0 mg/kg/injection, schedule: Q01DX009 (ip), vehicle: saline) 165 % of control; (dose: 3.12 mg/kg/injection, schedule: Q01DX009 (ip), vehicle: saline with Tween-80) 150 % of control; (dose: 5.0 mg/kg/injection, schedule: Q04DX003 (ip), vehicle: saline) 122 % of control. Besides, the T/C (dose: 6.25 mg/kg/injection, schedule: Q01DX009 (ip), vehicle: saline with Tween-80) is 160 % of control and 165 % of control; the T/C (dose: 7.2 mg/kg/injection, schedule: Q01DX009 (ip), vehicle: saline with Tween-80) is 166 % of control; the T/C (dose: 12.5 mg/kg/injection, schedule: Q01DX009 (ip), vehicle: saline with Tween-80) is 178 % of control and 215 % of control; the T/C (dose: 25.0 mg/kg/injection, schedule: Q01DX009 (ip), vehicle: saline with Tween-80) was 235 % of control and 195 % of control; the T/C (dose: 25.0 mg/kg/injection, schedule: Q04DX003 (ip), vehicle: saline) is 122 % of control; the T/C under setting [1] is 86 % of control. In addition, the T/C was 155 % of control under setting [2]; 150 % of control (dose: 50.0 mg/kg/injection, schedule: Q04DX003 (ip), vehicle: saline); 108 % of control (dose: 100.0 mg/kg/injection, schedule: Q04DX003 (ip), vehicle: other); 181 % of control (dose: 100.0 mg/kg/injection, schedule: Q04DX003 (ip), vehicle: saline); 100 % of control (dose: 150.0 mg/kg/injection, schedule: Q04DX003 (ip), vehicle: other); 90 % of control (dose: 400.0 mg/kg/injection, schedule: Q04DX003 (ip), vehicle: saline with Tween-80).

For the molecule `COc1ccc(CN2CCCN(Cc3ccc(OC)cc3)S2)cc1`, the T/C under setting [1] is 92 % of control; the T/C (dose: 100.0 mg/kg/injection, schedule: Q01DX009 (ip), vehicle: saline with Tween-80) was 101 % of control; the T/C (dose: 200.0 mg/kg/injection, schedule: Q01DX009 (ip), vehicle: saline with Tween-80) is 110 % of control.

`CCCCC(C(C)=O)C(C)C` (centres undefined): the T/C was 90 % of control (dose: 75.0 mg/kg/injection, schedule: Q01DX009 (ip), vehicle: Klucel (hydroxypropylcellulose) (HPC)); 111 % of control (dose: 100.0 mg/kg/injection, schedule: Q04DX003 (ip), vehicle: Klucel (hydroxypropylcellulose) (HPC)); 90 % of control (dose: 150.0 mg/kg/injection, schedule: Q01DX009 (ip), vehicle: Klucel (hydroxypropylcellulose) (HPC)); 96 % of control (dose: 200.0 mg/kg/injection, schedule: Q04DX003 (ip), vehicle: Klucel (hydroxypropylcellulose) (HPC)); 95 % of control (dose: 300.0 mg/kg/injection, schedule: Q01DX009 (ip), vehicle: Klucel (hydroxypropylcellulose) (HPC)); 96 % of control (dose: 400.0 mg/kg/injection, schedule: Q04DX003 (ip), vehicle: Klucel (hydroxypropylcellulose) (HPC)).

For `CCNC(C)(C)C(SS)c1ccc(Br)cc1` (centres undefined), the T/C is, setting by setting: (dose: 6.25 mg/kg/injection, schedule: Q01DX009 (ip), vehicle: water) 100 % of control; under setting [3], 92 % of control; under setting [4], 96 % of control; under setting [5], 102 % of control; under setting [6], 101 % of control; under setting [7], 100 % of control. Further, the T/C runs as follows: under setting [8], 109 % of control; under setting [9], 102 % of control; under setting [10], 101 % of control; under setting [11], 106 % of control; under setting [12], 90 % of control.

Take `N=c1nc2n(cc1F)[C@@H]1O[C@H](CO)[C@@H](O)[C@@H]1O2`: the T/C by setting is: (dose: 64.0 mg/kg/injection, schedule: Q01DX005 (ip), vehicle: saline) 153 % of control; (dose: 128.0 mg/kg/injection, schedule: Q01DX005 (ip), vehicle: saline) 171 % of control; (dose: 256.0 mg/kg/injection, schedule: Q01DX005 (ip), vehicle: saline) 209 % of control; (dose: 512.0 mg/kg/injection, schedule: Q01DX005 (ip), vehicle: saline) 276 % of control; (dose: 768.0 mg/kg/injection, schedule: Q01DX005 (ip), vehicle: saline) 86 % of control.

For the molecule `COc1cccnc1/C=N/NC(N)=S`, the T/C was 115 % of control (dose: 1.5 mg/kg/injection, schedule: Q01DX009 (ip), vehicle: saline with Tween-80); 118 % of control (dose: 3.0 mg/kg/injection, schedule: Q01DX009 (ip), vehicle: saline with Tween-80); 157 % of control (dose: 5.0 mg/kg/injection, schedule: Q01DX009 (ip), vehicle: saline with Tween-80); 158 % of control (dose: 8.0 mg/kg/injection, schedule: Q01DX009 (ip), vehicle: saline with Tween-80); 158 % of control and 175 % of control (dose: 12.0 mg/kg/injection, schedule: Q01DX009 (ip), vehicle: saline with Tween-80).

For `OCc1cnc[nH]1`, the T/C reads like this: (dose: 6.25 mg/kg/injection, schedule: Q01DX009 (ip), vehicle: Klucel (hydroxypropylcellulose) (HPC)) 96 % of control; (dose: 12.5 mg/kg/injection, schedule: Q01DX009 (ip), vehicle: Klucel (hydroxypropylcellulose) (HPC)) 91 % of control; (dose: 25.0 mg/kg/injection, schedule: Q01DX009 (ip), vehicle: Klucel (hydroxypropylcellulose) (HPC)) 90 % of control; (dose: 50.0 mg/kg/injection, schedule: Q01DX009 (ip), vehicle: Klucel (hydroxypropylcellulose) (HPC)) 99 % of control.

On to `CCCCOc1ccc(NC(N)=Nc2ccc(Cl)cc2)cc1`, for which the T/C was 95 % of control (dose: 3.12 mg/kg/injection, schedule: Q01DX010 (ip), vehicle: carboxymethylcellulose (CMC)); 90 % of control (dose: 12.5 mg/kg/injection, schedule: Q01DX010 (ip), vehicle: carboxymethylcellulose (CMC)); 95 % of control (dose: 25.0 mg/kg/injection, schedule: Q01DX010 (ip), vehicle: carboxymethylcellulose (CMC)); 109 % of control (dose: 25.0 mg/kg/injection, schedule: Q04DX003 (ip), vehicle: saline with Tween-80); 95 % of control (dose: 50.0 mg/kg/injection, schedule: Q01DX010 (ip), vehicle: carboxymethylcellulose (CMC)); 90 % of control under setting [2].

On to `O=C1CC(c2c[nH]c3nccnc23)NN1` (centres undefined), for which the T/C was 100 % of control under setting [3]; 101 % of control under setting [4]; 104 % of control under setting [5]; 110 % of control under setting [6]; 100 % of control under setting [7]; 100 % of control under setting [8]. For the same molecule, the T/C by setting is: under setting [9], 95 % of control; under setting [10], 103 % of control; under setting [11], 104 % of control; (dose: 300.0 mg/kg/injection, schedule: Q01DX009 (ip), vehicle: water) 103 % of control; under setting [12], 100 % of control.

(Values after PubChem BioAssay AID328 (DTP/NCI, 2004).)
